Source: patent EP0632041A1, “New morphine derivatives having improved analgesic and narcotic properties” (priority 1993, dated 1995)
Like-named read-outs stand apart in the source and are kept apart here.

How the values were obtained:
[1] = pH of 7.4; relative to morphine; cited from earlier work
rats = test: reflex inhibition and antinociception after intravenous and intrathecal injection in rats; format: in vivo; settings: for antinociceptive efficacy: after intrathecal injection; for reflex inhibitory potency: intravenous and intrathecal injection
mice = settings: cited from earlier work
[2] = cited from earlier work
[3] = more potent than morphine; cited from earlier work
δ receptors = δ receptors (Homo sapiens, UniProt P41143); settings: binding studies; cited from earlier work
δ receptors, sequence (P41143 whole entry, looked up): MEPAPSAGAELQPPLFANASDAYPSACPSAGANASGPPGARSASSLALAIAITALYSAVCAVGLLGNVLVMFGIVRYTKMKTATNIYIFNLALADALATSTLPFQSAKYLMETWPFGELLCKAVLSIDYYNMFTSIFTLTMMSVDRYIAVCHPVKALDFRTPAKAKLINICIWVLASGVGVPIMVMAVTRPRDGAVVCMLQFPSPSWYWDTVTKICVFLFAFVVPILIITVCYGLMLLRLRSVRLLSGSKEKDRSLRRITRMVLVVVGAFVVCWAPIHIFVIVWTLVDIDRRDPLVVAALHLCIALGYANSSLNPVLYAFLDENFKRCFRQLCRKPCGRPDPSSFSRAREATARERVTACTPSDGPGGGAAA

[4] = more potent than morphine; cited from earlier work; remark: listed apart in the source
[5] = compared with prediction and with morphine; cited from earlier work
[6] = test system: homogenate of bovine caudate nucleus; settings: cited from earlier work
κ receptors = κ receptors (Homo sapiens, UniProt P41145); settings: binding studies; cited from earlier work
κ receptors, sequence (P41145 whole entry, looked up): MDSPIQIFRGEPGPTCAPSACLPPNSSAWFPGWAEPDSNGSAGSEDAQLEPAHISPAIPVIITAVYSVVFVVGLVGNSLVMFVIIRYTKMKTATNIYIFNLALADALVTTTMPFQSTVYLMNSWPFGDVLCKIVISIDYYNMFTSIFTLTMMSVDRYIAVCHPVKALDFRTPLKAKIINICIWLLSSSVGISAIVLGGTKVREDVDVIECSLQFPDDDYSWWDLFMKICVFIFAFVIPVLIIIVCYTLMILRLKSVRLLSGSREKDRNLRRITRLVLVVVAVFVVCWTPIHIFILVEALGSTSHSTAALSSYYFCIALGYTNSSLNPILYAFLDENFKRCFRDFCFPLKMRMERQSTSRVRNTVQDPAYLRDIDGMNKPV

µ receptors = µ receptors (Homo sapiens, UniProt P35372); settings: binding studies; cited from earlier work
µ receptors, sequence (P35372 whole entry): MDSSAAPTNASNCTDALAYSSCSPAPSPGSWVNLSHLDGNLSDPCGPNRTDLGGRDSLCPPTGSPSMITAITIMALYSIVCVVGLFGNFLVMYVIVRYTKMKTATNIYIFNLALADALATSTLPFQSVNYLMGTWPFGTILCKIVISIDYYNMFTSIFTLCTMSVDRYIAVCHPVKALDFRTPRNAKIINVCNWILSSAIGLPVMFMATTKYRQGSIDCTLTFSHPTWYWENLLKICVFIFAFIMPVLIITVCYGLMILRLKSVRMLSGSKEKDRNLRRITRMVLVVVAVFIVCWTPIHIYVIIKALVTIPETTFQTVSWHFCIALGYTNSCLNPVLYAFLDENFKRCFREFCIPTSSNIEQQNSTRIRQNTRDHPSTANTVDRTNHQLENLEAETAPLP

For CN1CC[C@]23c4c5ccc(OC(=O)c6cccnc6)c4O[C@H]2[C@@H](OC(=O)c2cccnc2)C=C[C@H]3[C@H]1C5 [nicomorphine, 3,6-dinicotinoyl-morphine], the “lipid solubility higher than that of morphine” value [1] is listed as “about 10 fold”.

With CN1CC[C@]23c4c5ccc(O)c4O[C@H]2[C@@H](NC(=O)c2cccnc2)CC[C@H]3[C@H]1C5 [7,8-dihydro-6α-nicotinoylaminomorphine] the antinociceptive efficacy (rats) was “long-lasting antinociceptive efficacy” and the reflex inhibitory potency (rats) was “strong reflex inhibitory potency”.

In the case of CN1CC[C@]23c4c5ccc(O)c4O[C@H]2[C@@H](O[C@@H]2O[C@H](C(=O)O)[C@@H](O)[C@H](O)[C@H]2O)C=C[C@H]3[C@H]1C5 [Example M-6-G, morphine-6-glucuronide], the “analgesic potency relative to morphine” value (mice; given intrathecally) is given as 90 fold, the “analgesic potency relative to morphine” value (mice; given intravenously) is given as 650 fold and the “analgesic effectiveness at the level of the spinal cord versus supraspinally” value (mice; spinal cord compared with supraspinal) is given as “approximately 5 fold”. The “analgesia, effect relative to morphine” value (mice; subcutaneous administration, mice) was “approximately twice”, the seizure activity ([2]; high doses) was “profound seizure activity” and the “potency relative to morphine following microinjection” value ([2]; microinjection into the periaquaductal grey) was “up to 20 fold”. The “antinociceptive potency relative to morphine, tail-flick” value [3] was 61 fold, the “affinity, δ receptors” value (δ receptors) was “not” and the “antinociceptive potency relative to morphine, writhing” value [4] was 45 fold. The lipophilicity [5] was “far more lipophilic than predicted” and the “ability to displace ³H-naloxone” value [6] was “comparable to that of morphine”.

For COc1ccc2c3c1O[C@H]1[C@@H](NC(=O)c4cccnc4)CC[C@H]4[C@@H](C2)N(C)CC[C@@]341 [7,8-dihydro-6α-nicotinoylaminocodeine], the antinociceptive efficacy (rats) was “long-lasting antinociceptive efficacy” and the reflex inhibitory potency (rats) was “strong reflex inhibitory potency”.

In the case of CN1CC[C@]23c4c5ccc(O[C@@H]6O[C@H](C(=O)O)[C@@H](O)[C@H](O)[C@H]6O)c4O[C@H]2[C@@H](O)C=C[C@H]3[C@H]1C5 [Example M-3-G], the effect of microinjection ([2]; microinjection directly into the periaquaductal grey) is listed as “without effect”, the “affinity, δ receptors” value (δ receptors) is listed as “poor affinity” and the “affinity, κ receptors” value (κ receptors) is listed as “poor affinity”. The “affinity, µ receptors” value (µ receptors) was “poor affinity” and the lipophilicity [5] was “far more lipophilic than predicted”.

For CN1CC[C@]23c4c5ccc(O)c4O[C@H]2[C@@H](O)C=C[C@H]3[C@H]1C5 [morphine], the “analgesic potency at both levels of the neuraxis” value (mice; mouse, in vivo) is listed as “equipotent”.
